Measured values as given in patent US8613948B2, “Treatment of faecal incontinence and other conditions with 1R, 2S-methoxamine” (Norgine BV, priority 2001, dated 2013).
pEC50: −log10 of the molar value. Where “and” joins values, the source holds several entries; their conditions need not be identical. Equal entries are not always repeated. Where two headings read alike, the source gives them in different places. Each block holds one compound with its values, some of them ahead of it.

Legend:
[1] = tested on: pig internal anal sphincter muscle; experiment: In vitro contraction of internal anal sphincter muscle strips in superfusion organ bath; format: cell-based; conditions: for pEC50 / EC50: Sus scrofa; for EC50: Table 1, read-out: EC50 value μM (±SE); for contraction of smooth muscle strips from the IAS: dose range 10^−2M to 10^−8M
Procedure: Tissue was obtained from female Large White pigs from a local abattoir. Pieces of internal anal sphincter muscle were cut and the tissue was transferred immediately to Krebs solution at 4° C. (120 mM NaCl, 5.9 mM KCl, 15.4 mM Na2HCO3, 1.2 mM NaH2PO4, 2.5 mM CaCl2, 1.2 mM MgCl2, 11.5 mM glucose, equilibrated with 97% oxygen and 3% carbon dioxide to maintain the pH at 7.4±0.05). The epithelium of the anal canal was removed along with the submucosa. Strips of the internal anal sphincter (IAS) were cut, each measuring approximately 1×1×7 mm, weighing 2 mg to 8 mg and containing parallel muscle bundles. Fine 5-0 silk ligatures were tied to each end and the strips mounted for isometric tension recording in superfusion organ baths (capacity 0.2 ml)^19 as shown in FIG. 1. The muscle strip 1 is held by a thread 2 to secure it in position within the Perspex jacket 3. The strips were perfused continuously with Krebs solution (37° C.) at a rate of 1 ml/min introduced via an inflow 4 and exiting via an overflow 5. This apparatus allows six strips to be studied simultaneously. The strips were initially loaded with 1 g tension and allowed to equilibrate for at least 90 minutes. Tension was measured by Pioden dynamometer UF1 transducer (Pioden Controls, Canterbury, UK) involving a tension transducer 6 and ring electrodes 7 and 7a, and recorded both on a six channel Tekman 900 pen recorder (Tekman Electronics, Learnington Spa, UK) and using Chart v3.6 and MacLab Data Acquisition System (AD Instruments, Australia).
Phenylephrine (Sigma Chemical Co., Poole, UK), methoxamine racemate and the four methoxamine isomers were dissolved in Krebs solution and tested for their effect on IAS tone. Methoxamine racemate, that is to say, an equimolar mixture of the four isomers, was produced by Prosyth Limited, Acton, Sudbury, Suffolk. The four isomers (called peaks 1 to 4), were separated as described in Example 3. Peak 2 is 1R,2S-methoxamine. The 1R,2S isomer was also synthesised as described in Example 4. It has been confirmed by crystallography that peak 2 is 1R,2S-methoxamine.
IAS strips developed intrinsic tone during the equilibrium period. After equilibration increasing concentrations of each of the test compounds were added for 20 second periods, with intervening washout periods of at least ten minutes, until the tone had returned to baseline.
Results are expressed as mean (standard error of the mean) and the number of surgical specimens from which these strips were derived. A maximum of six strips were used from each pig for each test compound.
Test compound-induced increases in tone were calculated by taking the peak tone after application of the test compound and […]. This figure was then expressed as a percentage of maximal increase in tone seen across the dose range used (10^−2M to 10^−8M). All analysis was performed using Chart v3.6 software.
EC50 values were calculated by plotting concentration-response curves for each muscle strip. The dose causing 50% of maximal contraction was calculated by linear regression. EC50 values for different drugs were compared using a two-tailed t-test, assuming unequal variance and with p<0.05 considered significant.

human subjects = conditions: cited from earlier work
[2] = tested on: patients with incontinence; conditions: cited from earlier work
anaesthetised minipigs [3] = experiment: Mean anal resting pressure (MARP) in anaesthetised minipigs after topical administration to the anoderm; format: in vivo, Göttingen-minipigs; conditions: for effect on internal anal sphincter pressure and blood pressure: pigs in vivo
Procedure: • a) Placebo in 4% w/w gel • b) 0.3% by weight 1R,2S-methoxamine in 4% w/w gel • c) 1% by weight 1R,2S-methoxamine in 4% w/w gel • d) 3% by weight 1R,2S-methoxamine in 4% w/w gel • The 4% w/w gel comprises 4 g of hydroxypropylmethyl cellulose in 96 ml of 0.5M acetate buffer. 1% by weight 1R,2S-methoxamine in 4% w/w gel comprises 1 g of 1R,2S-methoxamine in 99 g of the 4% gel. Animals/Animal Maintenance
Göttingen-minipigs obtained from Ellegaard Göttingen Minipigs ApS, Soro Landevej 302, DK-4261 Dalmose, Denmark were used for the investigation. […] Four male animals were used. Animal no. 2 was replaced by animal no. 4, see below.
The minipigs were anaesthetised with a chloralose-urethane mixture (ratio 1+5). Additional anaesthesia was given when needed. To ensure a stable general condition of the minipig, blood gases and pH-value were measured in blood obtained from the right or left a. femoralis using a blood gas analyser ABL 70 (Radiometer, Copenhagen, Denmark) before start of experiment. Ringer solution (5 ml/kg b.w./h) was given continuously to compensate for fluid losses. The body temperature of the animals was maintained at 38° C. throughout the experiment of external heating.
(§1) The test substances were administered topically to the anoderm using a volume of 0.5 ml/animal. The interval between each observation period was 20 minutes. The administration was performed employing a 1 ml syringe inserted approximately 1 cm into the anal canal. The test substances were administered slowly while the syringe was rotated. After the preparation and a period of at least 15 minutes for stabilisation of the circulatory functions, the animals were treated with the placebo or the selected dose levels of the test substance by administration to the anoderm.
The anal resting pressure was measured by introduction of a manometric probe (Unisensor Microtipcatheter 8104-00-9409-D; Medical Measurement Systems b.v., Collosseum 25, NL-7521P.V. Enschede, The Netherlands) into the rectum three times. The anal resting pressure taken as a mean of these three measurements (MARP) was recorded with a Rikadenki Multipenrecorder.

anaesthetised minipigs [4] = experiment: Peripheral arterial blood pressure in anaesthetised minipigs after topical administration to the anoderm; format: in vivo, Göttingen-minipigs; conditions: 0.5 ml of 0.3%, 1%, 3% gels
Procedure: as §1
An intraarterial indwelling catheter (size 0.8×1.4 mm, B. Braun Melsungen AG, D-34212 Melsungen, Germany) was connected to a pressure transducer (DTX, Pfrimmer-Viggo, Erlangen, Germany) recording the systolic and diastolic arterial blood pressure in the right or left a. femoralis. The signal was boosed by a Hellige Servomed SMV 178 T amplifier (Hellige GmbH, D-79100 Freiburg, Germany). The blood pressure was recorded and monitored with a Hellige Cardiognost EK 512 P (paper speed: 2.5 mm/sec). Systolic and diastolic blood pressure [mmHg] were determined and the mean pressure was calculated according to the following formula: Mean blood pressure [mmHg]=(systolic pressure+(2×diastolic pressure))/3 Heart Rate and Electrocardiography […]

anaesthetised minipigs [5] = tested on: anaesthetised minipigs; design: species or system Göttingen-minipigs; conditions: in vivo
Procedure: as §1
ECG recordings were made using the standard limb leads I, II and III as well as augmented limb leads aVR, aVL and aVF. A standardisation of 10 mm/1 mV was used and a paper speed of 50 mm/sec. The recordings were carried out using a HELLIGE Marquette mac 5000 12SL. The recordings were examined visually for any arrhythmias and abnormalities of the electrical complexes. In addition, the following parameters were evaluated for limb lead II: Heart rate [beats/min]; P segment, [msec]; P-Q interval, [msec]; QRS complex [msec]; Q-T interval, [msec]. The QTc values [msec] were calculated according to the van de Water-formula: QTc=QT−0.087 (R-R distance−1000)
For each measurement period the heart rate, ECG and the blood pressure in the a. femoralis were measured continuously and recorded immediately before and 5, 10, 15, 20, 40 and 60 minutes after start of administration for periods of approx. 30 sec, and then in intervals of 20 minutes until any effect had subsided.

[6] = Methoxamine plasma levels in minipigs after topical administration to the anoderm; format: in vivo, Göttingen-minipigs; conditions: for mean peak plasma levels: 0.5 ml topical, two pigs
Procedure: as §1
Blood samples (5 ml/time-point) were taken immediately before and 10, 20, 40, 60, 90, and 120 minutes after start of administration, and were collected into lithium-heparin containers. The blood samples were immediately cooled at +2° C. to +8° C. by the use of an IsoTherm-Rack system (Eppendorf-Netheler-Hinz GmbH, D-22331 Hamburg, Germany) and the whole blood was processed for […]. Plasma was prepared by centrifugation (5 min, 4000 rpm, at +5° C.) and split into aliquots of approx. 1 ml each. Both plasma aliquots were immediately frozen at −80° C. at least and stored at this temperature until dispatch of one aliquot on dry ice for analysis.
The samples were analysed for the methoxamine plasma levels. The results are presented in Appendix 3.

anoderm = experiment: Macroscopical inspection of the anoderm; format: in vivo, Göttingen-minipigs; conditions: 0.3%, 1%, or 3%
Procedure: A macroscopical inspection of the anoderm was carried out during the experiments. Any obvious irritation and/or erythema caused by the fairly low pH value of the test substance formulation was reported.

anaesthetised minipigs [7] = experiment: Reactivity of the circulatory functions to arterenol or isoproterenol; format: in vivo, Göttingen-minipigs; conditions: any of the gels
Procedure: Before the first administration and at further suitable times after the administration, isoproterenol was administered intravenously for control purposes. Arterenol (norephinephrine hydrochloride, also known as L-noradrenaline) was administered for control purposes at the end of the study only after completing the collection of the blood samples for toxicokinetics.

[8] = IAS smooth muscle strips, n=24(4), read-out: EC50 values

- pEC50 [1, 8]: 4.12
- EC50 ([1]; pig IAS strips): 74.7 µM
SMILES: CNC[C@H](O)c1cccc(O)c1 [Phenylephrine]
- contraction of smooth muscle strips from the IAS [1]: caused a dose-dependent contraction
- duration of rise in resting anal pressure (median) (human subjects; 10% gel, normal human subjects): 7 h
- rise in resting anal pressure (human subjects; 10% to 20% by weight gels, patients with low resting pressures and incontinence): no significant rise in resting anal pressure
- rise in resting anal pressure (human subjects; 30% and 40% gels, patients with low resting pressures and incontinence): increases did achieve statistical significance
- rise in resting anal pressure (human subjects; gel comprising 10% by weight, applied to the anus of normal human subjects): 33%
- subjective improvement in continence ([2]; 10% gel, patients with faecal leakage after ileoanal pouch construction): significantly greater subjective improvement in continence compared to placebo
- incontinence scores, resting anal canal pressure or anodermal blood flow ([2]; 10% gel, randomised controlled trial, 36 patients with incontinence): no significant overall improvements
- local side effect ([2]; topical preparations of the order of 30-40% by weight): perianal burning has been reported

- pEC50 [1, 8]: 7.24
- EC50 ([1]; pig IAS strips): 58.3 µM
SMILES: COc1ccc(OC)c(C(O)C(C)N)c1 (racemic) [methoxamine racemate, 2-amino-1-(2,5-dimethoxyphenyl)-1-propanol]
- contraction of smooth muscle strips from the IAS [1]: caused a dose-dependent contraction

- pEC50 ([1]; chemically synthesised 1R,2S isomer, pig IAS strips, read-out: EC50): 4.98
- EC50 ([1]; pig IAS strips): 17.6 µM
- maximum plasma levels ([6]; 0.3% formulation): 6 ng methoxamine/ml plasma
- time of peak plasma levels ([6]; 0.3% gel): 40 min
- mean peak plasma levels ([6]; 0.3% gel): 4.90 ng/mL and 6.97 ng/mL
- time of maximum plasma levels following application ([6]; 0.3%, 1% and 3% formulations): approximately 40 minutes
- maximum plasma levels ([6]; 1% formulation): 10 ng methoxamine/ml plasma
- mean peak plasma levels ([6]; 1.0% gel): 9.88 ng/mL and 11.0 ng/mL
- maximum plasma levels ([6]; 3% formulation): 56 ng methoxamine/ml plasma
- mean peak plasma levels ([6]; 3.0% gel): 50.4 ng/mL and 61.3 ng/mL
- macroscopic inspection: pathological changes (anoderm): No pathological changes were observed
- expected reactions to arterenol or isoproterenol (anaesthetised minipigs [7]): not influenced
SMILES: COc1ccc(OC)c([C@@H](O)C(C)N)c1 (single isomer, unassigned) [1R,2S-methoxamine]
- contraction of smooth muscle strips from the IAS [1]: caused dose dependent contraction
- potency at inducing contraction of internal anal sphincter muscle in vitro relative to phenylephrine ([1]; in vitro): at least four times more potent
- potency relative to methoxamine racemate ([1]; racemate = equimolar mixture of all four isomers): at least four times the potency
- increase in MARP compared to the start value (anaesthetised minipigs [3]; 0.5 ml of 0.3% gel): 73%
- period of MARP increase (anaesthetised minipigs [3]; 0.5 ml of 0.3% gel): 110 min
- start of MARP increase after administration (anaesthetised minipigs [3]; 0.5 ml of 0.3% gel): 5 min
- MARP (anaesthetised minipigs [3]; 0.5 ml of 0.3% gel, topical to anoderm, average): 50 mmHg
- increase in MARP (anaesthetised minipigs [3]; 0.5 ml of 1% gel): 227%
- time after application to MARP increase (anaesthetised minipigs [3]; 0.5 ml of 1% gel): ≤ 20 min
- MARP (anaesthetised minipigs [3]; 0.5 ml of 1% gel, average): 64 mmHg
- MARP (anaesthetised minipigs [3]; 0.5 ml of 3% gel): 70 mmHg
- MARP (anaesthetised minipigs [3]; 0.5 ml of 3% gel, listed as IR,2S-methoxamine): approx. 70 mmHg
- effect on internal anal sphincter pressure and blood pressure (anaesthetised minipigs [3]; 0.5 ml of gel containing 1% or 0.3% by weight (5 mg and 1.5 mg), topical): increase internal anal sphincter pressure without any effect on blood pressure
- effect on internal anal sphincter pressure and blood pressure (anaesthetised minipigs [3]; gels containing 1% by weight and even as little as 0.1% by weight): increase internal anal sphincter pressure without any effect on blood pressure
- systolic, diastolic or mean blood pressure (anaesthetised minipigs [4]): not influenced
- heart rate (anaesthetised minipigs [5]; Göttingen, minipig, 2 h): approx. 100 beats/min
- increase in the heart rate (anaesthetised minipigs [5]; Göttingen, minipig, 2 h): 29%
- influence on P-segment, P-Q interval, Q-T interval, QTc value and QRS complex (anaesthetised minipigs [5]): no substance-related influence
- prolongation of the QT-interval (anaesthetised minipigs [5]): no evidence was noted for a prolongation of the QT-interval
- ventricular premature complexes (visual assessment of ECG) (anaesthetised minipigs [5]): did not reveal any ventricular premature complexes
